# Reference: PubChem BioAssay AID651837 (Sanford-Burnham Center for Chemical Genomics, 2012)
# Activity calls are given as the source filed them.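 Rule for the calls: active = compounds whose fitted half-inhibition dose is 9.7 micromolar or lower; inactive = the rest.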
# Test system: Sufu-KO-LIGHT mouse cells, Gli-luciferase reporter luminescence
# Test: antagonism of Gli-driven luciferase signal in Sufu-null cells – Sufu-KO-LIGHT mouse cells, luminescence, set 2, SAR follow-up (AID 651837)
row,IC50,Compound
1,> 9.7 µM (inactive),CC(C)(C)OC(=O)N1CCN(c2cc(NC(=O)c3ccccc3)ncn2)CC1
2,0.023 µM,O=C(Nc1cc(N2CCCCC2)ncn1)c1ccccc1
3,> 9.7 µM (inactive),O=C(Nc1cc(N2CCCCC2)ncn1)c1ccccc1C(F)(F)F
4,> 9.7 µM (inactive),O=C(Nc1cc(N2CCCCC2)ncn1)c1ccc(C(F)(F)F)cc1
5,3.4 µM,CCOc1ccc(S(=O)(=O)NCc2ccncc2)cc1NC(=O)c1ccccc1
6,> 9.7 µM (inactive),CCCCNc1cc(NC(=O)c2ccccc2)ncn1
7,> 9.7 µM (inactive),O=C(Nc1cc(N2CCCCC2)ncn1)c1ccco1
8,0.027 µM,CCOc1ccc(-c2nc(CSCC(=O)NC3CC3)c(C)o2)cc1
9,> 9.7 µM (inactive),CCC(C)Nc1cc(NC(=O)c2ccccc2)ncn1 (stereo not drawn)
10,> 9.7 µM (inactive),N#Cc1cccc(C(=O)Nc2cc(N3CCCCC3)ncn2)c1
11,> 9.7 µM (inactive),CC(C)Nc1cc(NC(=O)c2ccccc2)ncn1
12,0.035 µM,O=C(Nc1cc(N2CCCCCC2)ncn1)c1ccccc1
13,> 9.7 µM (inactive),CC1CCCCN1c1cc(NC(=O)c2ccccc2)ncn1 (stereo not drawn)
14,> 9.7 µM (inactive),COc1cccc(C(=O)Nc2cc(N3CCCCC3)ncn2)c1
15,> 9.7 µM (inactive),CC(C)CNc1cc(NC(=O)c2ccccc2)ncn1
16,> 9.7 µM (inactive),CC(C)(C)Nc1cc(NC(=O)c2ccccc2)ncn1
17,> 9.7 µM (inactive),Cc1ccc(C(=O)Nc2cc(N3CCCCC3)ncn2)cc1
18,> 9.7 µM (inactive),O=C(Nc1cc(N2CCNCC2)ncn1)c1ccccc1
19,> 9.7 µM (inactive),CN1CCN(c2cc(NC(=O)c3ccccc3)ncn2)CC1
20,> 9.7 µM (inactive),O=C(Nc1cc(N2CCCCC2)ncn1)c1ccccc1Cl
21,> 9.7 µM (inactive),O=C(Nc1cc(NCC2CCCO2)ncn1)c1ccccc1 (stereo not drawn)
22,> 9.7 µM (inactive),N#Cc1ccc(C(=O)Nc2cc(N3CCCCC3)ncn2)cc1
23,> 9.7 µM (inactive),O=C(Nc1cc(N2CCOCC2)ncn1)c1ccccc1
24,> 9.7 µM (inactive),O=C(Nc1cc(N2CCCCC2)ncn1)c1ccc(Cl)cc1
25,> 9.7 µM (inactive),CCCCN(C)c1cc(NC(=O)c2ccccc2)ncn1
26,> 9.7 µM (inactive),COc1ccccc1C(=O)Nc1cc(N2CCCCC2)ncn1
27,0.024 µM,CC1CCN(c2cc(NC(=O)c3ccccc3)ncn2)CC1
28,> 9.7 µM (inactive),O=C(Nc1cc(N2CCSCC2)ncn1)c1ccccc1
